Earlier results in US20240261224A1, “FORMULATION OF A PAN-JAK INHIBITOR” (KINASET THERAPEUTICS, INC., priority 2022, published 2024).
Where two headings read alike, the source gives them in different places. Marks after values point to notes of the source that are not given here.

What was measured:
[1] = tested on: fractional exhaled nitric oxide (FeNO); conditions: cited from earlier work
[2] = marketed DPI; cited from earlier work

SMILES | Mean placebo-corrected FeNO reduction ([1]; 1.0 mg QD, 1 capsule per dose, an increase in FeNO was observed) | Mean placebo-corrected FeNO reduction ([1]; 4.0 mg QD, 4 capsules per dose) | Mean placebo-corrected FeNO reduction ([1]; 15.0 mg BID, 30 capsules per dose) | Mean placebo-corrected FeNO reduction ([1]; 15.0 mg QD, 15 capsules per dose) | MMAD (μm) [2]
CN(CCC#N)C1CCN(C(=O)Cn2cc(NC(=O)c3cnn4cccnc34)c(-c3cc(Cl)ccc3OC(F)F)n2)CC1 [GDC-0214] | 0.4%* | −6.5% | −42% | −23% | 
CCC(=O)O[C@]1(C(=O)SCF)[C@H](C)C[C@H]2[C@@H]3C[C@H](F)C4=CC(=O)C=C[C@]4(C)[C@@]3(F)[C@@H](O)C[C@@]21C [fluticasone propionate] |  |  |  |  | 6-7 μm
